In ChEMBL document CHEMBL1201862, “PubChem BioAssay data set” (2004):
Calls of active or inactive are those of the source.

Key:
[1] = biological target: Peroxisome proliferator-activated receptor gamma/Nuclear receptor coactivator 1 (Homo sapiens, UniProt P37231); experiment: (§1) TR-FRET dose response biochemical High Throughput Screening assay for agonists of the steroid receptor coactivator 1 (SRC-1) recruitment by the peroxisome proliferator-activated receptor gamma (PPAR gamma): non-selective agonists. [Related pubchem assays (depositor defined):AID1300, AID1808, AID504735, AID631]; format: protein assay
[2] = biological target: Peroxisome proliferator-activated receptor gamma/Nuclear receptor coactivator 3 (Homo sapiens, UniProt P37231); experiment: as §1, with “3 (SRC-3)” for “1 (SRC-1)”, “assays: 1301 (Confirmation screen.), 1048 (Primary screen.)]” for “assays (depositor defined):AID1300, AID1808, AID504735, AID631]”; format: functional
Sequence of Peroxisome proliferator-activated receptor gamma/Nuclear receptor coactivator 3 (P37231 whole entry): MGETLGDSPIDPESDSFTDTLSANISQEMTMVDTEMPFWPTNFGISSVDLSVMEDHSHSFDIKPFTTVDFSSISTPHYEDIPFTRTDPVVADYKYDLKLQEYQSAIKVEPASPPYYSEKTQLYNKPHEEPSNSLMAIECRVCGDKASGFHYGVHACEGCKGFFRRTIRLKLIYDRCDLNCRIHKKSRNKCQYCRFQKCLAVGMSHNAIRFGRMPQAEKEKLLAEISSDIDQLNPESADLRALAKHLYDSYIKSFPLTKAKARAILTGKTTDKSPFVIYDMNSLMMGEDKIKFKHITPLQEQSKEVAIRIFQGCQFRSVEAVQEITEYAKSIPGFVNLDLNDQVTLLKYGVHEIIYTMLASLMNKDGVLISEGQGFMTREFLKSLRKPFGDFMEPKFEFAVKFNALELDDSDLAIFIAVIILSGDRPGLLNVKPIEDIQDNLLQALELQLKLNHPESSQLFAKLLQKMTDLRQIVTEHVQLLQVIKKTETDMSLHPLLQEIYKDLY
Sequence of Peroxisome proliferator-activated receptor gamma/Nuclear receptor coactivator 3 (Q9Y6Q9 whole entry, further chain): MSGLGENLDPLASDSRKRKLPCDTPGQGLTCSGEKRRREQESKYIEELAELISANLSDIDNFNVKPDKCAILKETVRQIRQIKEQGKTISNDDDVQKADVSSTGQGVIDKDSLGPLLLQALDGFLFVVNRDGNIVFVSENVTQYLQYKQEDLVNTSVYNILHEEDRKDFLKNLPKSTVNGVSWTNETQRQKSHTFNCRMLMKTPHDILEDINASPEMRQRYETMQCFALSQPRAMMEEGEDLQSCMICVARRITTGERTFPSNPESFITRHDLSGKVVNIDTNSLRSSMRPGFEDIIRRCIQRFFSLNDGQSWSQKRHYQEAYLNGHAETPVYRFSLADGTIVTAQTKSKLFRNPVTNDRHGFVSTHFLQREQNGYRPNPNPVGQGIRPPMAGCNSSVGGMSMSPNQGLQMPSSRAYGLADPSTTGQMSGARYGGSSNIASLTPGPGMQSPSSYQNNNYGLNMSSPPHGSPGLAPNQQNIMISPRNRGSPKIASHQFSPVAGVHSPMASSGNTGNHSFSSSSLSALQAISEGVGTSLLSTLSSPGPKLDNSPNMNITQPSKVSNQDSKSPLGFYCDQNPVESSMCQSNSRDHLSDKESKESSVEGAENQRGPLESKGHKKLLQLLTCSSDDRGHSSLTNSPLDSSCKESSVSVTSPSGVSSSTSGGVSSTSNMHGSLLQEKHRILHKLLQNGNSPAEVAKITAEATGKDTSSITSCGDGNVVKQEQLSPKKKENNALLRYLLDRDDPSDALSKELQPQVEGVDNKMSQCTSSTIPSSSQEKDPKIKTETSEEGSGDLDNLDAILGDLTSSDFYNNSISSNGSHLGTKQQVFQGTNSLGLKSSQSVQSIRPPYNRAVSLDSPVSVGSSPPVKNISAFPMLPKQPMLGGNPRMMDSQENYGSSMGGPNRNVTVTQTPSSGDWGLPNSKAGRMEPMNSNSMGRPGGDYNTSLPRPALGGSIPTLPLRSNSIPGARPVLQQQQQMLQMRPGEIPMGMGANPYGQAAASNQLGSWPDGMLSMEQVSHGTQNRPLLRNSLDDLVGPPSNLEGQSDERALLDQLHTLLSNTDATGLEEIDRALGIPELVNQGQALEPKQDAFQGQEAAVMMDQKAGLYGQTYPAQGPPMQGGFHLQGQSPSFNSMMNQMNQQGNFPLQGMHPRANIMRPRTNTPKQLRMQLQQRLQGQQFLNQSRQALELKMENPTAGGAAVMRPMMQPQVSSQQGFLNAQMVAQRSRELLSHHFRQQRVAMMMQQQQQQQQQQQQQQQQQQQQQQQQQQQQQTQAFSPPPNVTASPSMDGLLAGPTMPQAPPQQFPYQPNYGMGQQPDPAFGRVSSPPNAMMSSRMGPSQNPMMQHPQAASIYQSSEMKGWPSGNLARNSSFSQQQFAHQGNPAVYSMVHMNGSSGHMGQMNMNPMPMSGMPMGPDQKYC

[3] = biological target: Peroxisome proliferator-activated receptor gamma/Nuclear receptor coactivator 2 (Homo sapiens, UniProt P37231); experiment: TR-FRET dose response biochemical High Throughput Screening assay for agonists of the steroid receptor coactivator 2 (SRC-2) recruitment by the peroxisome proliferator-activated receptor gamma (PPAR gamma): non-selective agonists. [Related pubchem assays: 1297, 1032 ]; format: functional
Sequence of Peroxisome proliferator-activated receptor gamma/Nuclear receptor coactivator 2 (P37231 whole entry): as the sequence (P37231 whole entry) above
Sequence of Peroxisome proliferator-activated receptor gamma/Nuclear receptor coactivator 2 (Q15596 whole entry, further chain): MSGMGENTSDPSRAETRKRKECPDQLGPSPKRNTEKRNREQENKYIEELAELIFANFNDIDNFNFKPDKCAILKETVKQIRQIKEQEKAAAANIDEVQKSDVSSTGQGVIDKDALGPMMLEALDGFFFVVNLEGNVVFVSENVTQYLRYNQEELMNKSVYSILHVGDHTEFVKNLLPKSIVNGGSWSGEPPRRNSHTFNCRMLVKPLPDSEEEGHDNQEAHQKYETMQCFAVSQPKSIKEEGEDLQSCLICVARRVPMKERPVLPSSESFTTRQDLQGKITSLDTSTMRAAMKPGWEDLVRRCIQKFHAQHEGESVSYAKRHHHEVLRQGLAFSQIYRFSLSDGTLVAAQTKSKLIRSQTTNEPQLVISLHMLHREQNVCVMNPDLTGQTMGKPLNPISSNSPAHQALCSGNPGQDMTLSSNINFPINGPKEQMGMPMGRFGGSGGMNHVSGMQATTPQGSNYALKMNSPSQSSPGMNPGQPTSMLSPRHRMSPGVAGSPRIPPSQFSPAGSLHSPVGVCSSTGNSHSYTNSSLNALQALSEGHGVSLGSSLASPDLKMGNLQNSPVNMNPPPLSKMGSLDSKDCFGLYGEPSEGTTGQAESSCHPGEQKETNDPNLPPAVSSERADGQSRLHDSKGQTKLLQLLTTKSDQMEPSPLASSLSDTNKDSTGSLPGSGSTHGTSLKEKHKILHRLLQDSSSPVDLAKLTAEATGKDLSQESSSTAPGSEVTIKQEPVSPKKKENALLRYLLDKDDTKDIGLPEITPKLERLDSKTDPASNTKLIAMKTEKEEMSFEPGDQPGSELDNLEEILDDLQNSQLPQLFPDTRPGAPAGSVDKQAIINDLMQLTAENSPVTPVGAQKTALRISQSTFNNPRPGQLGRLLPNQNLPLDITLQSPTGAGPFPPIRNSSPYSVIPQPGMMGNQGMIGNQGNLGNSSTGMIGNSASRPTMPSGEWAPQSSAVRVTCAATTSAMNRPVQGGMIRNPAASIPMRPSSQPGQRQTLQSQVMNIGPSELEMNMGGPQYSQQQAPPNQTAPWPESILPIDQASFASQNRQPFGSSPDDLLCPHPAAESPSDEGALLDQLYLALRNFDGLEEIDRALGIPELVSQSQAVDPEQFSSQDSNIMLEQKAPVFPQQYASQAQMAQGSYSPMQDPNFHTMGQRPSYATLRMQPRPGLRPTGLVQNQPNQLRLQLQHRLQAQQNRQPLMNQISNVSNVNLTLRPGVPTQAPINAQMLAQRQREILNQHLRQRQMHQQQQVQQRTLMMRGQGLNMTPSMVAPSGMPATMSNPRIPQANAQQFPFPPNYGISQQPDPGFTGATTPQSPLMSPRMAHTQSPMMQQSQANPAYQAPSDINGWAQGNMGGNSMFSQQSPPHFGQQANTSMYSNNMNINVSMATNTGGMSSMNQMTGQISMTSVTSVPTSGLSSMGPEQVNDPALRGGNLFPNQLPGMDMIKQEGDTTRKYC

[4] = NIH-3T3 fibroblast cytotoxicity, dose response, cytotoxicity control, cell-based, fluorescence, Alamar Blue, secondary assay (AID 2327); format: functional;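 further: NIH-3T3 mouse fibroblasts cultured with fluconazole at 8 µg/mL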
[5] = tested on: Streptococcus sp. 'group A'; experiment: growth inhibition of control SK(-) GAS strain, dose response, counter-screen for streptokinase expression inhibitor project, luminescence, kanamycin, BacTiterGlo, confirmation (AID 1900); format: functional, organism-based
Streptokinase A = biological target: T1, Streptokinase A (Streptococcus pyogenes serotype M1, UniProt P10520); experiment: S. pyogenes streptokinase expression inhibitors, potency, dose response, plasminogen activation absorbance, OD405 (AID 1914); format: functional, Streptococcus pyogenes M1 GAS;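 further: secreted streptokinase activity via plasminogen activation per viability signal from cell pellet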
T1 sequence (P10520 whole entry): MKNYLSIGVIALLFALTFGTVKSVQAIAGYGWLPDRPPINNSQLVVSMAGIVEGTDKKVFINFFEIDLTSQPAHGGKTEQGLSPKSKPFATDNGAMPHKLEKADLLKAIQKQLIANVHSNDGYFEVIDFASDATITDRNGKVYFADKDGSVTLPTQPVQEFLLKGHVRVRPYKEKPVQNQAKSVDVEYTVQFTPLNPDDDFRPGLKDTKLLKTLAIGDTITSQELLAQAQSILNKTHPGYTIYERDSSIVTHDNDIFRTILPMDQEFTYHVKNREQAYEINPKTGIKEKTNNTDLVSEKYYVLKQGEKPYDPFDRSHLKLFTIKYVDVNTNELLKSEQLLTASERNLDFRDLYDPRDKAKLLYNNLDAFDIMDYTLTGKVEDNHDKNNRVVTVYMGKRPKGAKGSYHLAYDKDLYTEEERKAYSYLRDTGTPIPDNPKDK

[6] = C. albicans growth with fluconazole, confirmation, fluorescence, retest (AID 2467); format: functional, cell-based
[7] = inhibitors of intracellular T. cruzi replication, confirmation, NIH3T3 host cells, beta-gal luminescence (AID 2044); format: functional, cell-based;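 further: intracellular parasites grown in NIH/3T3 mouse fibroblasts as host cells; luminescent beta-galactosidase reporter signal from transgenic T. cruzi replicating inside host cells; inhibitors lower the luminescence signal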
[8] = growth suppression of PTEN-null colon cells, dose response, cell-based, HCT116 PTEN knockout (AID 1047); format: functional;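 further: HCT116 colon tumor cells with PTEN knocked out; cells exposed to compound for 60 hours before readout; potency for loss of cell viability measured by luminescence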
[9] = cytotoxicity toward NIH3T3 fibroblasts, dose response, counter-screen, cell-based, ATP luminescence, mouse fibroblasts (AID 2010); format: functional;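 further: cells exposed to compound for about 90 hours before reading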
[10] = growth suppression of beta-catenin-knockout colon cells, dose response, cell-based, HCT116, human colon tumor (AID 1045); format: functional;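 further: HCT116 colon tumor cells with beta catenin knocked out; cells exposed to compound for 60 hours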
Streptococcus = experiment: Group A Streptococcus viability loss, dose response, counter-screen for streptokinase expression inhibitor project, luminescence, BacTiterGlo (AID 1915); format: functional, organism-based;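 further: potency for reduction of bacterial viability or growth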
Cysteine protease ATG4B = biological target: T2, Cysteine protease ATG4B (Homo sapiens, UniProt Q9Y4P1); format: functional;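 further: Fluorescence-based dose-response confirmation assay measuring inhibition of ATG4B activity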
T2 sequence (Q9Y4P1 whole entry): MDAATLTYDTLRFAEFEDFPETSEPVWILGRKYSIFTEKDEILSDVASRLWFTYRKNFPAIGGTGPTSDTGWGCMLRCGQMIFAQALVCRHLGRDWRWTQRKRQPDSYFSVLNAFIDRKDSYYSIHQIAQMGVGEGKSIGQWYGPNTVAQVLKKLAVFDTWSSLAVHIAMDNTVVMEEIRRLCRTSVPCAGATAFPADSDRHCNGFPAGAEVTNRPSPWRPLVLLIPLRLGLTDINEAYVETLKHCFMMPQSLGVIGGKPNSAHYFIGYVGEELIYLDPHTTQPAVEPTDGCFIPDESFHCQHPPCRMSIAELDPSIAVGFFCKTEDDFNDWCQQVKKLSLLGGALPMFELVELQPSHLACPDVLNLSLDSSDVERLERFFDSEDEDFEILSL

Phospholipase A2 = Phospholipase A2 (Homo sapiens, UniProt P04054); format: functional;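 further: confirmatory dose-response counterscreen on phospholipase A2, testing hits that came from an ultra-high-throughput screen for ATG4B inhibitors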
Sequence of Phospholipase A2 (P04054 whole entry): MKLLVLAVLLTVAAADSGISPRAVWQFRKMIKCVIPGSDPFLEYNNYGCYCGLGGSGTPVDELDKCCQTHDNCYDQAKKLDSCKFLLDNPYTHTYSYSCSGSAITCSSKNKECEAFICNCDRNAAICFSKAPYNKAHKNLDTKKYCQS

Vero = experiment: cells; format: functional; details: Chlorocebus sabaeus
[11] = biological target: T3, DNA repair protein RAD52 homolog (Homo sapiens, UniProt P43351); format: functional, biochemical
T3 sequence (P43351 whole entry): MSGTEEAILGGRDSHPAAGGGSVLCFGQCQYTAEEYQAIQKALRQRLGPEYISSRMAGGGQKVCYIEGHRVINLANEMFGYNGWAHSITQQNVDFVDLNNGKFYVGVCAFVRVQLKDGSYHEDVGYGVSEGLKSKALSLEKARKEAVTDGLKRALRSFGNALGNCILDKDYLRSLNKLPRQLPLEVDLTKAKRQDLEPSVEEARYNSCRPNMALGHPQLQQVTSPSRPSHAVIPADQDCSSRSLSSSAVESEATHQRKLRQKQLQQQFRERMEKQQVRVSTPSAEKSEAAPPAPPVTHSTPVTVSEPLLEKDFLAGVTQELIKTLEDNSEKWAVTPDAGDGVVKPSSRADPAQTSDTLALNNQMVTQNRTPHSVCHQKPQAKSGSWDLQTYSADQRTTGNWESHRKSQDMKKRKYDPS

HEK293 [12] = experiment: NOD1 signaling inhibitors, primary screen, cell-based, luminescence, uHTS (AID 1578); format: functional; details: Homo sapiens
HEK293 [13] = experiment: cells; format: functional, cell-based; details: Homo sapiens
HEK293 [14] = experiment: cells; format: functional, cell-based; details: Homo sapiens; remark: listed apart in the source
[15] = biological target: Nucleotide-binding oligomerization domain-containing protein 2 (Homo sapiens, UniProt Q9HC29); experiment: NOD2 signaling inhibitors, cell-based, luminescence, uHTS, HEK293 (AID 1566); format: functional
Sequence of Nucleotide-binding oligomerization domain-containing protein 2 (Q9HC29 whole entry, the tested form may be a part): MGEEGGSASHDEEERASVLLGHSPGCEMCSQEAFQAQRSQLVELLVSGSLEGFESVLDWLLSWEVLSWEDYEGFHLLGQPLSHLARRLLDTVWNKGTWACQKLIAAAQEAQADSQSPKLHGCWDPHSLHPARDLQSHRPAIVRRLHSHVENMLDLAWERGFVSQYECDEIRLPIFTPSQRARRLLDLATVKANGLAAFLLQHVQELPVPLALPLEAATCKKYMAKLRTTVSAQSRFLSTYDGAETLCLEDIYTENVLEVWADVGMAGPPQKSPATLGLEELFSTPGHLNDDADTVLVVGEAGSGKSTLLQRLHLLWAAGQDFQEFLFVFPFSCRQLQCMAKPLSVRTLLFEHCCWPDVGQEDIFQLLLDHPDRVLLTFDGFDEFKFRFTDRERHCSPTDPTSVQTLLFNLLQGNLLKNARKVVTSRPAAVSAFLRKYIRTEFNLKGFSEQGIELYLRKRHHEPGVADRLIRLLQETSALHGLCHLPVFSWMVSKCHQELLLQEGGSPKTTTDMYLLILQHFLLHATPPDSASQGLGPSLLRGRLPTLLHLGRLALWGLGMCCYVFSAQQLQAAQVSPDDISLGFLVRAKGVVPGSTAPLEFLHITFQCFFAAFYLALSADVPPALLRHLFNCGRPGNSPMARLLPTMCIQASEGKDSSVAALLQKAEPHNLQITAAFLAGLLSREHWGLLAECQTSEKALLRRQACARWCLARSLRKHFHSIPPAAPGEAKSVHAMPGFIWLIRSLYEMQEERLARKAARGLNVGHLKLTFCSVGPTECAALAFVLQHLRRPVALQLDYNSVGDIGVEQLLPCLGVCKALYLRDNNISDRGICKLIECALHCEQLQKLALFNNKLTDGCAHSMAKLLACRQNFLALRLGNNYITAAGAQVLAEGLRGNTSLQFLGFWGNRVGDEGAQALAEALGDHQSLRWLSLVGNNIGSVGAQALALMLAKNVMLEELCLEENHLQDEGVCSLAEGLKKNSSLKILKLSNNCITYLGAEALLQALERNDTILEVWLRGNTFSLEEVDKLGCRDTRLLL

HEK293 [16] = experiment: NOD2 signaling inhibitors in MDP-stimulated cells, cell-based, uHTS, luminescence (AID 2001); format: functional; details: Homo sapiens
HEK293 [17] = experiment: cells; format: functional, cell-based; details: Homo sapiens; remark: listed apart in the source
[18] = biological target: T4, RNA-binding protein pos-1 (Caenorhabditis elegans, UniProt G5EF15); experiment: inhibitors of POS-1/mex-3 RNA binding, dose response, biochemical, fluorescence polarization (AID 1964);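 further: purified POS-1 fused to maltose binding protein made in E. coli; potency of compounds blocking POS-1 binding to fluorescent RNA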
T4 sequence (G5EF15 whole entry): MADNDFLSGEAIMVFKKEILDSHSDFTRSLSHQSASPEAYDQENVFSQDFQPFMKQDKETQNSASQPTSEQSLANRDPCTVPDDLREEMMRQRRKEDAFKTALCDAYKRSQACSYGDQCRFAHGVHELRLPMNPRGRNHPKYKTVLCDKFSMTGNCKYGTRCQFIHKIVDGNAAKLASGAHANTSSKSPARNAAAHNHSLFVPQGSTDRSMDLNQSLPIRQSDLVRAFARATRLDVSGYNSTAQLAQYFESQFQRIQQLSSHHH

[19] = biological target: T5, Zinc finger protein mex-5 (Caenorhabditis elegans, UniProt Q9XUB2); experiment: MEX-5/TCR-2 RNA interaction inhibitors, dose response, biochemical, C. elegans, fluorescence polarization (AID 1960)
T5 sequence (Q9XUB2 whole entry): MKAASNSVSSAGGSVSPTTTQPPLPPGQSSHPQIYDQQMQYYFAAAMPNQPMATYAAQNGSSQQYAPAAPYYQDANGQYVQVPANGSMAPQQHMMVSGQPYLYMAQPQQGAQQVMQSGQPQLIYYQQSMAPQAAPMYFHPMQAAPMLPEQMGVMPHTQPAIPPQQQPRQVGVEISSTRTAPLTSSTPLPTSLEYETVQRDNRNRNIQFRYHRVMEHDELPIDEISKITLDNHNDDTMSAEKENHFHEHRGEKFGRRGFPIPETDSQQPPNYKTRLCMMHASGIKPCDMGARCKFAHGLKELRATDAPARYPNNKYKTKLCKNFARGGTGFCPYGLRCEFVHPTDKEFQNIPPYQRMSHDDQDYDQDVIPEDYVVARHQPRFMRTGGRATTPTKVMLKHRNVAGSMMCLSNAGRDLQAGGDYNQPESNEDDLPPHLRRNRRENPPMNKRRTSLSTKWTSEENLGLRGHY

Coagulation factor XII = biological target: T6, Coagulation factor XII (Homo sapiens, UniProt P00748); format: functional;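 further: activated factor XIIa alpha cleaving a fluorogenic AMC peptide substrate; inhibitor potency from loss of enzyme activity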
T6 sequence (P00748 whole entry): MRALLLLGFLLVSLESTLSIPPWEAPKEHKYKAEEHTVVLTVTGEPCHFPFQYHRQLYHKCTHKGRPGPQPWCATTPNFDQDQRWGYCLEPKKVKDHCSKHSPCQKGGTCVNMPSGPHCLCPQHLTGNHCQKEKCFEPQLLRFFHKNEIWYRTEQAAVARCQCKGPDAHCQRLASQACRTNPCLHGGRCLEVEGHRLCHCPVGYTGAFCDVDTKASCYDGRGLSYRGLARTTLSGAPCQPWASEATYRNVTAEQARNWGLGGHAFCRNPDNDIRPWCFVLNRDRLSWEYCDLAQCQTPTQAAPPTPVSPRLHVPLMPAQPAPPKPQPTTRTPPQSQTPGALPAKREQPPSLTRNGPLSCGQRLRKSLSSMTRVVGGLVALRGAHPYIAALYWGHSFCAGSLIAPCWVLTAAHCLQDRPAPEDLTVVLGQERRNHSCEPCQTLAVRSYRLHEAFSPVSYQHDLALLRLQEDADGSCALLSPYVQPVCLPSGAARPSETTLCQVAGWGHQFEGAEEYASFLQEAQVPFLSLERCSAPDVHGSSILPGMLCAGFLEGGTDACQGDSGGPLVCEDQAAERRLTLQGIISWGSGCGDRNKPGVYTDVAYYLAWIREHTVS

Cytochrome P450 1A2 = biological target: T7, Cytochrome P450 1A2 (Homo sapiens, UniProt P05177);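 further: PubChem cytochrome P450 panel assay, CYP1A2 panel member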
T7 sequence (P05177 whole entry): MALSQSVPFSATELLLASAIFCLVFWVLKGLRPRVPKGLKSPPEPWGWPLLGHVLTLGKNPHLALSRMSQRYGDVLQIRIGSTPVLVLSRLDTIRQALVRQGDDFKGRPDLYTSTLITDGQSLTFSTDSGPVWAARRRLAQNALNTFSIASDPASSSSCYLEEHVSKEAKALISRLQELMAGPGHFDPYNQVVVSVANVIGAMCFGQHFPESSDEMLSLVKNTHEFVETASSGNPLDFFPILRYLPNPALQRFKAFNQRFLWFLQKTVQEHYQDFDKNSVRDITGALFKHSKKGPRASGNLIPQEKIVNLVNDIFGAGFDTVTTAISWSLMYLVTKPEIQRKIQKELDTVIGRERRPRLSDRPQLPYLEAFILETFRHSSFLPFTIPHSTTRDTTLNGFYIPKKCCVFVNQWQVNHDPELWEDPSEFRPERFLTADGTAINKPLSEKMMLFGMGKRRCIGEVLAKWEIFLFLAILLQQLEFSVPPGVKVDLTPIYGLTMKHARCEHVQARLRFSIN

Cytochrome P450 2C9 = Cytochrome P450 2C9 (Homo sapiens, UniProt P11712)
Cytochrome P450 2D6 = Cytochrome P450 2D6 (Homo sapiens, UniProt P10635);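 further: CYP2D6 member of a cytochrome P450 panel assay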

CCn1c(=O)cc(SCC(=O)Nc2cccc(SC)c2)c2ccccc21
EC50 [1]: 69.8 µM (inactive) | EC50 [2]: > 79.4 µM (not active) | EC50 [3]: > 26.5 µM (not active)

CCCCCCCOC(=O)C[N+](C)(C)CCOC1CC2CCC1(C)C2(C)C (centres undefined)
EC50 [4]: > 150 µM (inactive) | EC50 [5]: 3.84 µM (active) | EC50 (Streptokinase A): 5.77 µM (active) | EC50 [6]: 0.997 µM (active) | EC50 [7]: 0.224 µM (active) | EC50 [8]: 15.8 µM (active) | EC50 [9]: > 60 µM (not active) | EC50 [10]: 20.2 µM (active) | EC50 (Streptococcus): 9.21 µM (active) | IC50 (Cysteine protease ATG4B): 7.62 µM (active) | IC50 (Phospholipase A2): 10.3 µM (active) | CC50 (Vero): > 25 µM (active) | AC50 [11]: 29.2 µM (active)

COc1ccc(-c2cc(=O)oc3cc(O)ccc23)cc1
EC50 (HEK293 [12]): 5.67 µM (active) | IC50 (HEK293 [13]): 2.45 µM (active) | IC50 (HEK293 [14]): > 20 µM (inactive) | EC50 [15]: 5.73 µM (active) | IC50 (HEK293 [16]): 3.06 µM (active) | IC50 (HEK293 [17]): > 20 µM (inactive)

Cc1nnc(N2C(=O)C(O)=C(C(=O)c3ccco3)C2c2ccc(F)cc2)s1 (centres undefined)
EC50 [18]: 34.2 µM (active) | EC50 [1]: > 79.4 µM (inactive) | EC50 [2]: > 79.4 µM (not active) | EC50 [19]: 32.9 µM (active) | EC50 [3]: 27 µM (not active)

Nn1c(C2CCCCC2)nc2ccccc2c1=O
IC50 (Coagulation factor XII): > 50 µM (inactive)

Oc1nc(-c2ccccc2)cc(C(F)(F)F)n1
AC50 (Cytochrome P450 1A2): 11.2 µM (inconclusive) | AC50 (Cytochrome P450 2C9): 6.31 µM (inconclusive) | AC50 (Cytochrome P450 2D6): inconclusive

Cc1onc(-c2ccccc2)c1CNC(=O)Nc1cccc(Cl)c1
IC50 (Cysteine protease ATG4B): 15 µM (active) | IC50 (Phospholipase A2): 8.35 µM (active)

COc1cccc(NC(=O)Nc2ccccc2SC)c1
IC50 (Coagulation factor XII): > 50 µM (inactive)

COc1cccc(Nc2nc(-c3sc(NC(=O)c4ccccc4)nc3C)cs2)c1
EC50 [1]: 14.8 µM (inactive) | EC50 [2]: > 79.4 µM (not active) | EC50 [3]: 27.9 µM (not active)

Cc1ccc2cccc(/N=C/c3c(C)[nH]n(-c4ccccc4)c3=O)c2n1
EC50 (HEK293 [12]): 4.72 µM (active) | IC50 (HEK293 [13]): > 20 µM (inactive) | IC50 (HEK293 [14]): > 20 µM (inactive) | EC50 [15]: > 20 µM (inactive) | IC50 (HEK293 [16]): 7.67 µM (active) | IC50 (HEK293 [17]): > 20 µM (inactive)

Cc1cc(Nc2ccc(C)c(C)c2)n2nc(C)nc2n1
IC50 (Coagulation factor XII): > 50 µM (inactive)
